This is an account of results in ChEMBL document CHEMBL3871263, “Arylthiosemicarbazones as antileishmanial agents” (Eur J Med Chem, 2016).

One series has as its system Leishmania donovani. Kind of series: Antileishmanial activity against intracellular amastigote stage of Leishmania donovani MHOM/ET/67/HU3 infected in human THP1 cells assessed as parasite growth measured after 72 hrs by luciferase reporter gene assay. In kind it is functional, cell-based. The note with it: MHOM/ET/67/HU3, THP-1, 72 h. (A reporter such as luciferase makes a cellular process visible.)

The nature of series [1]: Cytotoxicity against human THP1 cells assessed as reduction in cell growth measured after 72 hrs by MTT assay. In kind it is toxicity, cell-based, THP-1. Background: Tetrazolium dyes change colour on reduction, which living cells bring about.
Series [2] in a line: Cytotoxicity against human MRC5 cells assessed as reduction in cell growth measured after 72 hrs by MTT assay. In kind it is toxicity, cell-based.
Series [3] can be described thus: Selectivity index, ratio of EC50 for human MRC5 cells to EC50 for intracellular Leishmania donovani MHOM/ET/67/HU3 amastigotes. The class given is toxicity, cell-based. As to conditions: read-out: Ratio EC50.

`NC(=S)N/N=C/c1ccc2cc(OCc3ccccc3)ccc2c1`: the EC50 with Leishmania donovani turned out to be 1.2 µM. For the same compound, the EC50 at 72 h in series [1] amounted to 28 µM; in series [2], 27 µM. In addition, the selectivity ratio in series [3] amounted to 22.6.

Turning to `NC(=S)N/N=C/c1ccc(F)c2ccccc12`, the EC50 with Leishmania donovani was 0.8 µM. For the same compound, the 50% effective concentration (EC50) at 72 h is 39 µM in series [1] and greater than 200 µM in series [2]. In addition, the selectivity ratio in series [3] is greater than 250.

On to `Cn1c(/C=N/N=C(/N)S)cc2ccccc21`, for which the EC50 with Leishmania donovani was greater than 10 µM. For the same compound, the EC50 at 72 h in series [1] and in series [2] was greater than 200 µM throughout.

Take `CCOc1ccc2cc(/C=N/NC(N)=S)ccc2c1`: the EC50 with Leishmania donovani came to 5.4 µM. The EC50 at 72 h in series [1] is 30 µM; in series [2] it was greater than 200 µM. The selectivity ratio in series [3] is greater than 40.

`CCCCn1cc(/C=N/NC(N)=S)c2cccc(C)c21`: in the series with Leishmania donovani, the EC50 turned out to be 9 µM. Besides, the EC50 at 72 h in series [1] is greater than 200 µM; in series [2] it was 31 µM. Besides, the selectivity ratio in series [3] is 3.4.

For the compound `CCOc1ccc(/C=N/NC(N)=S)c2ccccc12`, the EC50 in the series with Leishmania donovani was found to be 7.2 µM. The EC50 at 72 h in series [1] and in series [2] was greater than 200 µM in each case. For the same compound, in series [3], the selectivity ratio was greater than 30.

Take `NC(=S)N/N=C/c1c(OCC2CCCCC2)ccc2ccccc12`: the EC50 in the series on Leishmania donovani was greater than 10 µM. Besides, the 50% effective concentration (EC50) at 72 h in series [1] came out at 28 µM; in series [2], 33 µM.

For `Cc1ccc(/C=N/NC(N)=S)c2ccccc12`, in the series with Leishmania donovani, the EC50 is 1.2 µM. Besides, the results for the EC50 at 72 h in series [1] and in series [2] were 32 µM and 37 µM, respectively. Moreover, in series [3], the selectivity ratio turned out to be 30.4.

As to `NC(=S)N/N=C/c1ccc2ccccc2c1OCc1ccccc1`, the EC50 in the series with Leishmania donovani is 2.6 µM. The EC50 at 72 h in series [1] was determined as 28 µM; in series [2], 25 µM. For the same compound, the selectivity ratio in series [3] came out at 9.7.

With `COc1ccc(/C=N/NC(N)=S)c2ccccc12`, in the series on Leishmania donovani, the EC50 was 5 µM. Besides, the results for the EC50 at 72 h in series [1] and in series [2] were 47 µM and 42 µM, respectively. In addition, in series [3], the selectivity ratio was 8.4.

For `Cn1ccc2cc(/C=N/NC(N)=S)ccc21`, the EC50 in the series with Leishmania donovani is greater than 10 µM. The 50% effective concentration (EC50) at 72 h in series [1] and in series [2] was greater than 200 µM each time.

On to `COCOc1ccc(/C=N/NC(N)=S)c2ccccc12`, for which the EC50 in the series with Leishmania donovani is greater than 10 µM. Besides, the EC50 at 72 h in series [1] was greater than 200 µM; in series [2], 126 µM.

Turning to `NC(=S)N/N=C/c1cn(CCCc2ccccc2)c2ccccc12`, the EC50 with Leishmania donovani is 4.1 µM. The EC50 at 72 h was 30 µM in series [1] and greater than 200 µM in series [2]. Also, the selectivity ratio in series [3] was greater than 50.

`COCOc1ccc2cc(/C=N/NC(N)=S)ccc2c1`: the EC50 in the series with Leishmania donovani was greater than 10 µM. The EC50 at 72 h in series [1] is greater than 200 µM; in series [2], 175 µM.

As to `NC(=S)N/N=C/c1cn(CC2CCCCC2)c2ccccc12`, in the series on Leishmania donovani, the EC50 worked out at 9 µM. In addition, the concentration for a half-maximal effect (EC50) at 72 h in series [1] is 27 µM; in series [2], 26 µM. Moreover, in series [3], the selectivity ratio was determined as 2.8.

In the case of `COc1ccc2ccccc2c1/C=N/N=C(/N)S`, in the series with Leishmania donovani, the EC50 is greater than 10 µM. In addition, the EC50 at 72 h in series [1] is 109 µM; in series [2], 126 µM.

With `CCCCOc1ccc(/C=N/NC(N)=S)c2ccccc12`, the EC50 in the series on Leishmania donovani was 2.1 µM. Moreover, the half-maximal effective concentration (EC50) at 72 h is greater than 200 µM in series [1] and 41 µM in series [2]. Besides, the selectivity ratio in series [3] stood at 19.5.

`NC(=S)N/N=C/c1ccc(OCC2CCCCC2)c2ccccc12`: the EC50 with Leishmania donovani was 2.2 µM. The EC50 at 72 h was found to be 150 µM in series [1] and 28.9 µM in series [2]. Further, the selectivity ratio in series [3] came to 13.1.

Consider `COc1ccc2c(OC)ccc(/C=N/NC(N)=S)c2c1`, for which the EC50 in the series with Leishmania donovani was determined as 9 µM. Moreover, the EC50 at 72 h in series [1] and in series [2] was greater than 200 µM in each case. Moreover, in series [3], the selectivity ratio was greater than 20.

For the compound `CCCCOc1ccc2cc(/C=N/NC(N)=S)ccc2c1`, in the series with Leishmania donovani, the EC50 was 1.27 µM. For the same compound, the EC50 at 72 h in series [1] came to 36 µM; in series [2], 43 µM. Also, the selectivity ratio in series [3] was 33.2.

Take `CN(C)c1ccc(/C=N/N=C(/N)S)c2ccccc12`: the EC50 with Leishmania donovani was found to be 6.5 µM. Moreover, the EC50 at 72 h in series [1] and in series [2] was greater than 200 µM throughout. For the same compound, the selectivity ratio in series [3] is greater than 30.

As for `NC(=S)N/N=C/c1cc2ccccc2c2ccccc12`, the EC50 in the series on Leishmania donovani was greater than 10 µM. The values for the EC50 at 72 h in series [1] and in series [2] were greater than 200 µM and 192 µM, respectively.

For the compound `NC(=S)N/N=C/c1cn(Cc2ccccc2)c2ccccc12`, the half-maximal effective concentration (EC50) in the series on Leishmania donovani is greater than 10 µM. Also, the EC50 at 72 h in series [1] is 28 µM; in series [2], 175 µM.

Regarding `COCOc1c(/C=N/NC(N)=S)ccc2ccccc12`, the EC50 in the series on Leishmania donovani was determined as 6.8 µM. Moreover, the EC50 at 72 h in series [1] was 56 µM; in series [2], 119 µM. Further, the selectivity ratio in series [3] was found to be 17.5.

In the case of `Cc1cccc(Cn2cc(/C=N/NC(N)=S)c3ccccc32)c1`, the EC50 in the series with Leishmania donovani came out at 4.3 µM. In addition, the EC50 at 72 h is 32 µM in series [1] and 23 µM in series [2]. Also, the selectivity ratio in series [3] amounted to 5.3.

`NC(=S)N/N=C/c1c(OCc2ccccc2)ccc2ccccc12`: in the series on Leishmania donovani, the EC50 was found to be 8.1 µM. Further, the figures for the EC50 at 72 h in series [1] and in series [2] were 39 µM and 30 µM, respectively. The selectivity ratio in series [3] was found to be 3.7.

Consider `NC(=S)N/N=C/c1ccc(-c2ccc(/C=N/NC(N)=S)cc2)cc1`, for which the EC50 with Leishmania donovani is greater than 10 µM. Further, the EC50 at 72 h in series [1] and in series [2] was greater than 200 µM each time.

Turning to `COc1ccc2cc(/C=N/NC(N)=S)ccc2c1`, the EC50 in the series with Leishmania donovani is 9.3 µM. Besides, the EC50 at 72 h was 108 µM in series [1] and greater than 250 µM in series [2]. For the same compound, the selectivity ratio in series [3] is greater than 20.

On to `Cn1cc(/C=N/NC(N)=S)c2ccccc21`, for which, in the series on Leishmania donovani, the EC50 is greater than 10 µM. Moreover, the EC50 at 72 h in series [1] and in series [2] was greater than 200 µM in each case.

For `NC(=S)N/N=C/c1c2ccccc2cc2ccccc12`, in the series on Leishmania donovani, the EC50 was 5.3 µM. Also, the concentration giving a half-maximal response (EC50) at 72 h amounted to 67 µM in series [1] and 45 µM in series [2]. Also, in series [3], the selectivity ratio amounted to 8.5.

As for `CCCCOc1c(/C=N/NC(N)=S)ccc2ccccc12`, the EC50 in the series on Leishmania donovani stood at 1.4 µM. The EC50 at 72 h in series [1] was greater than 200 µM; in series [2] it was 86 µM. For the same compound, the selectivity ratio in series [3] was 61.5.

Consider `NC(=S)N/N=C/c1ccc(OCc2ccccc2)c2ccccc12`, for which the concentration giving a half-maximal response (EC50) in the series with Leishmania donovani came out at 1.9 µM. Moreover, the EC50 at 72 h worked out at 27 µM in series [1] and 29 µM in series [2]. Besides, in series [3], the selectivity ratio turned out to be 15.2.

In the case of `C[C@@H]1[C@H](O)[C@@H](C)/C=C/C=C/C=C/C=C/C=C/C=C/C=C/[C@H](O[C@@H]2O[C@H](C)[C@@H](O)[C@H](N)[C@@H]2O)C[C@@H]2O[C@](O)(C[C@@H](O)C[C@@H](O)[C@H](O)CC[C@@H](O)C[C@@H](O)CC(=O)O[C@H]1C)C[C@H](O)[C@H]2C(=O)O` [AMPHOTERICIN B], the values for the EC50 at 72 h in series [1] and in series [2] were 38 µM and 23 µM, respectively.

For orientation: EC50 means the concentration that produces a half-maximal response.
